Data reported in article PMC7262662 (BioMed Research International, 2020).
Marks after values point to notes of the source that are not given here.

What was measured:
[1] = Cytotoxicity assay (MTT); assay type: cell-based, feline; conditions: cat
Protocol: (§1) CrFK cells at a density of 2 × 10^4 were incubated in 96-well culture plates for 24 h at 37°C. Then, the cells were washed with PBS. […] A colorimetric MTT assay was performed. Briefly, 20 μL 5 mg/mL MTT solution was added to each well and incubated for 2 h at 37°C. Then, 170 μL solution was removed from each well; subsequently, 100 μL DMSO was added to dissolve the formazan crystals. The plate was then incubated for 1 h before optical density (OD) measurement at 570 nm using a plate reader (BioTek EL800, BioTek, Winooski, VT, USA).
(§2) The relative cell viability (%) of CrFK cells after treatment was calculated using the formula (OD570 (treated cells)/OD570 (control cells)) × 100. The median cytotoxic concentration (CC50) is the concentration that reduces the absorbance of treated cells to 50% with respect to the cell controls. The CC50 of the compounds was calculated by regression analysis in SPSS software version 22.0 (IBM, Chicago, IL, USA).

[2] = test system: CrFK cells; experiment: Cytotoxicity assay (MTT); assay type: cell-based, feline; conditions: CrFK cells; MTT; tested 1 to 250 μg/mL
Protocol: as §1, §2

[3] = test system: FIPV; experiment: Antiviral assay in cotreatment: viral RNA quantification by qPCR; assay type: cell-based, feline infectious peritonitis virus; conditions: for % log10 copy number decrement: compared to FIPV sample; for 3′UTR log10 copy number: cotreatment
Protocol: CrFK cells at a density of 1 × 10^5 were cultured in medium in 24-well plates for 24 h at 37°C. […] The culture supernatant was centrifuged at 700 g for 10 min, and the virus-containing supernatant was collected and used for virus quantification.
Viral RNA was extracted from the collected supernatant using a Viral Nucleic Acid Extraction Kit II (Geneaid, New Taipei City, Taiwan) following the protocol provided by the manufacturer. Cellular total RNA was extracted from the CrFK cell pellet using the RNeasy® Mini Kit, which includes DNase treatment (QIAGEN, Germantown, MD, USA). The concentration and purity of the extracted RNA were quantified using the Eppendorf BioSpectrometer® kinetic (Eppendorf, Hamburg, Germany). The extracted RNA was stored at -80°C until further use.
Complementary DNA (cDNA) was prepared, and viral mRNA was quantified using quantitative PCR (qPCR) employing previously described methods. The qPCR results were quantified using the absolute quantification approach, where a standard curve of a serial dilution of viral cDNA template was plotted before the quantification.

Q: Which results are given for `COc1cc(/C=C/C(=O)CC(=O)/C=C/c2ccc(O)c(OC)c2)ccc1O` [Curcumin]?
A: CC50 at 24 h [1]: 69.9 µM; CC50 at 48 h [1]: 59.1 µM; CC50 at 72 h [1]: 35.5 µM; Concentration tolerated by the cells without cytotoxic effect [2]: 15 µg/mL; % log10 copy number decrement ([3]; 48 h, 5 μM): 27.54 ± 3.28^b %; 3′UTR log10 copy number ([3]; 48 h, 5 μM, FIPV sample 11.86 ± 0.06): 11.72 ± 0.06^d; % log10 copy number decrement ([3]; 48 h, 10 μM): 40.50 ± 5.41^c %; 3′UTR log10 copy number ([3]; 48 h, 10 μM, FIPV sample 11.86 ± 0.06): 11.63 ± 0.01^cd; % log10 copy number decrement ([3]; 48 h, 20 μM): 59.46 ± 2.45^e %; % log10 copy number decrement ([3]; 48 h, 20 μM, listed as curcumin): 59.46 ± 2.45%; 3′UTR log10 copy number ([3]; 48 h, 20 μM, FIPV sample 11.86 ± 0.06): 11.46 ± 0.05^b; % log10 copy number decrement ([3]; 72 h, 5 μM): 10.70 ± 5.47^b %; 3′UTR log10 copy number ([3]; 72 h, 5 μM, FIPV sample 12.00 ± 0.03): 11.95 ± 0.01^cd; % log10 copy number decrement ([3]; 72 h, 10 μM): 26.92 ± 5.93^cd %; 3′UTR log10 copy number ([3]; 72 h, 10 μM, FIPV sample 12.00 ± 0.03): 11.86 ± 0.06^abc; % log10 copy number decrement ([3]; 72 h, 20 μM): 26.38 ± 2.75^c %; 3′UTR log10 copy number ([3]; 72 h, 20 μM, FIPV sample 12.00 ± 0.03): 11.87 ± 0.04^abc
